Assay results from patent publication US20020032182A1, “Method of treating hypersomnia sleep disturbance or insomnia sleep disturbance that is secondary to another condition” (priority 1997, published 2002).
Entries after “also recorded” stand apart in the source; their conditions may differ. Counter-ions that a name gives are not always drawn.

Key:
severe dysthymia = assay: Patient No. 3 treatment of severe dysthymia; type: in vivo, human
Excerpt: Patient No. 3 was a divorced person experiencing chronic suicidal depression for about 15 years. For as long as the patient can remember, they have had episodic, mild-to-moderate mood swings. Approximately 15 years ago, their condition worsened and they were depressed almost daily. Their thoughts were slowed down, they felt intensely sad, guilty, worthless, confused, and desperate. Over a period of approximately two years they underwent therapy with a social worker and psychotherapy with a psychiatrist, with little positive results. No pharmaco-therapy was involved in either of these treatments. Initially, Patient No. 3 met with the inventor and identified a childhood source as a partial cause of their depression, low self-esteem and dysfunctional thinking. Although they appreciated the insights gained through the psychoanalysis/psychotherapy with the inventor, their depression persisted unabated. They were rejected by their girlfriend and became frighteningly suicidal. […] Within six months they developed a tolerance to the drug and it was increased to 100 mg per day with no effect. They stopped […]® and started bupropion 100 mg b.i.d and lithium 300 mg t.i.d. Bupropion is an aminoketone antidepressant, and lithium is a metal used to treat bipolar disorder. […] Their condition was desperate and life-threatening.

[1] = test system: pre-menstrual syndrome (PMS); settings: women with PMS treated with fluoxetine; cited from earlier work
[2] = test system: pre-menstrual syndrome (PMS) and major depression; assay: Patient No. 4 treatment of major depression and self-rating of pre-menstrual syndrome symptoms; type: in vivo, human
Experimental: Patient No. 4 was a person who has struggled to overcome a wide variety of psychiatric symptoms, two of which are depression and pre-menstrual syndrome (PMS). After several treatments, it was determined that a combination of paroxetine 20 mg t.i.d. and lithium 300 mg t.i.d. diminished their symptoms of obsessive-compulsive disorder, depression, hypomania and PMS.
In FIGS. 6-8 the abbreviations for each symptom on the graphs may be translated as follows:
Patient No. 4's formal diagnoses were Multiple Personality Disorder, Obsessive-Compulsive Disorder, Major Depression Disorder, Alcoholism (recovering), and Pre-Menstrual Syndrome (PMS).
Set forth below in Table 1 are the research criteria set forth in the Diagnostic and Statistical Manual of Mental Disorders, Forth edition, published by the American Psychiatric Association for Pre-Menstrual Dysphoric Disorder, or Pre-Menstrual Syndrome.
They described a typical menses as follows. They were usually moderately to severely depressed for at least two days during the week before their menses. They had sudden mood swings. One moment they would be crying and the next they would be laughing wildly, or they would have sudden outbursts of anger. They were markedly tense and would fidget constantly. They tired easily and lacked energy. They could barely drag themself out of bed each morning. They craved carbohydrates and often would eat several doughnuts, whole cakes, or boxes of cookies. They slept little, and for two or three nights they would have night sweats that drenched their bed. They also experienced back cramps, bloating and pains in their joints and muscles. They had trouble concentrating and was unable to do life's simplest chores. Their PMS interfered with their ability to function. They lost interest in their favorite hobby, reading.

[3] = test system: depression in the form of dysthymia; assay: Patient No. 1 weekly blinded component study with Beck Scale and SCL-90 Scale self-rating; type: in vivo, human; settings: for patient-reported symptoms during week: component taken along with sertraline 125 mg qd
Experimental: Patient No. 1 was a person who, after a series of psychoanalysis/psychotherapy sessions, was diagnosed as suffering from depression in the form of dysthymia. Patient No. 1 experienced a chronic low mood with markedly diminished interest and pleasure in all activities including work, eating, and sexual relations.
Initially, Patient No. 1 was treated only with the known antidepressant sertraline (sold under the registered trademark ZOLOFT®). Sertraline is a selective serotonin reuptake inhibitor. Sertraline was administered in amounts from 50 to 150 mg qd (per day); the ideal dose for this patient was ultimately determined to be 125 mg qd (per day).
Independent of the sertraline treatments, the patient began taking a vitamin and mineral supplement that included a series of components. […] As such improvement was unexpected, a study of the components of the mineral preparation was undertaken. During this study, Patient No. 1 stopped taking the composite preparation.
In this study, Patient No. 1 took one component of the preparation at a time according to a schedule of one pill a day for five days, Monday through Friday. At the end of each week, they filled out two self-rating scales that are used in the diagnosis and monitoring of depression. These scales are the Beck Scale and the SCL-90 Scale, both of which are well known in the field of psychiatry and psychotherapy. Patient No. 1 continued to take sertraline at 125 mg per day. During the study, Patient No. 1 was not informed of what they were taking.
The series of events described in the above example are more fully set forth in the graphs in FIGS. 1 and 2. FIG. 1 is a bar graph displaying the scores on the Beck Scale, a self-rating scale for depression, at the end of each weekly treatment.
FIG. 2 is a bar graph of the total score on the SCL-90 Scale. The SCL-90 is composed of 90 questions. It is designed to measure symptoms of somatization, obsessive-compulsive behavior, interpersonal sensitivity, depression, anxiety, hostility, phobic anxiety, paranoid ideation, and psychoticism. It is noted that the grand total of scores on each Friday closely parallels the results of the Beck Scale.

dysthymia = assay: Patient No. 2 weekly component study with Beck Scale and SCL-90 Scale; type: in vivo, human
Experimental: Patient No. 2 was a single person. They are the child of Patient No. 1. They complained of weight gain, hyperphagia, hypersomnia, loss of interest in sex, irritability and an inability to concentrate. They stated that they had been seeing psychotherapists since they were […], but had no success in dealing with their depression. They were also diagnosed as having dysthymia.
They had taken sertraline in the amount of 50 mg qd with little help. This dosage was increased to 100 mg qd which proceeded for a period of five weeks. […] They were not as weepy and their outlook was less negative. Their interest in sex was increased. Their appetite remained the same.
Patient No. 2 then began a similar study as that described above for Patient No. 1. For the first week, they took one vitamin C tablet daily along with 100 mg of sertraline. Their depression appeared to worsen as reflected by their grand total Beck score of +12 and their SCL-90 of +4 as more fully portrayed on the FIG. 4.
For Patient No. 2, FIG. 4 presents Patient No. 2's Beck Scale total scores, and FIG. 5 presents a graph of the four subscales of somatization, obsessive-compulsive, depression, and anxiety on the SCL-90 Scale.

alcohol craving = assay: Patient No. 1 alcohol craving while taking chromium picolinate alone; type: in vivo, human
Excerpt: During the later stages of the study described above, when Patient No. 1 was taking chromium picolinate alone, they also noticed a change in their ability to tolerate alcohol. Both of their parents were alcoholics so they guarded carefully against this outcome by drinking infrequently.
Despite this effort, […] often experienced intense cravings for alcohol. Prior to […] treatment with chromium, when […] consumed alcohol, […] could only drink it by gulping it. […] experienced rapid intoxication, unpleasant feelings, and a severe hangover the next day. […] […] also observed that […] could drink in moderation, without having a severe hangover the next day.

[4] = test system: pre-menstrual syndrome (PMS); assay: Patient No. 2 pre-menstrual syndrome observation; type: in vivo, human; settings: chromium 200 μg per day
Experimental: They said that they had less carbohydrate craving during the week before, that they were less irritable, that their dysphoria was relieved, and that their usual cramps were non-existent. Thus, an aspect of the present invention includes the treatment of pre-menstrual syndrome (PMS), or dysmenorrhea (problematic and/or painful menses), comprising administering chromium in a preferred dose of 200 μg per day to a patient in need thereof.

Plasma chromium level = type: in vivo, human
Experimental: Most preferred dosage ranges of chromium are those doses sufficient to deliver from about 4.5 to about 6 μg of chromium per kilogram (kg) of body weight. This dosage range is generally several fold greater than that contained in most commercially available multi-vitamin and mineral preparations. This amount results in a plasma chromium level between 0.9 μg/liter to 2.1 μg/liter. The plasma level will vary depending on the level of exercise, i.e., the more one exercises, the more chromium is required to maintain plasma levels.
Commercially available tubes for the collection of blood can contain significant amounts of chromium. To avoid contamination, plasma levels of chromium should be determined from blood collected in heparinized or EDTA tubes.

[5] = test system: depression in the form of dysthymia; assay: Patient No. 1 weekly blinded component study with Beck Scale and SCL-90 Scale self-rating; type: in vivo, human
[6] = sertraline 100 mg with one vitamin C tablet daily, first week
[7] = sertraline only, 50 to 150 mg qd

Molecule: CN(C)CCC=C1c2ccccc2CCc2ccccc21 [ELAVIL, amitriptyline HCl]
- effect on depression (severe dysthymia; 50 mg per day): helped them sleep
- effect on depression (severe dysthymia; increased to 100 mg per day after tolerance): no effect

Molecule: CC(NC(C)(C)C)C(=O)c1cccc(Cl)c1 (centres unmarked) [bupropion]
- adverse effect leading to discontinuation (severe dysthymia; bupropion 100 mg b.i.d. with lithium 300 mg t.i.d.): developed involuntary muscle twitches

Molecule: [Cr] [chromium]
- time to relief of symptoms (severe dysthymia; chromium picolinate 200 μg b.i.d. with sertraline 100 mg qd): relief of symptoms within four to five days

Molecule: CNCCC(Oc1ccc(C(F)(F)F)cc1)c1ccccc1 (centres unmarked) [fluoxetine]
- women suffering from PMS without a positive response [1]: ~40%

Molecule: Fc1ccc([C@@H]2CCNC[C@H]2COc2ccc3c(c2)OCO3)cc1 [paroxetine]
- change in severity of PMS symptoms ([2]; paroxetine): reduced the severity of their symptoms of PMS from severe to moderately severe
- patient rating of PMS ([2]; paroxetine 20 mg t.i.d. and lithium 300 mg t.i.d.): moderate to severe and barely tolerable
- depression ([2]; resumed lithium 300 mg t.i.d. and paroxetine 40 mg per day): their depression was refractory

Molecule: [Se] [selenium]
- patient-reported symptoms during week [3]: felt agitated

Molecule: CN[C@H]1CC[C@@H](c2ccc(Cl)c(Cl)c2)c2ccccc21 [sertraline, reference compound]
- effect on depression (dysthymia; sertraline 50 mg qd): little help
- effect on depression (dysthymia; sertraline 100 mg qd for five weeks): still symptomatic of depression, but felt better
- SCL-90 score (dysthymia; [6]): +4
- grand total Beck score (dysthymia; [6]): +12
- total Beck score ([3]; sertraline 125 mg each day for five days with vitamin C placebo): +10
- symptoms in week prior to study ([3]; sertraline 125 mg qd alone): loss of energy, disturbed sleep, and awaking tired
- relief of symptoms of dysthymia [3, 7]: provided some relief of the symptoms of dysthymia
- side effects [3, 7]: made the patient sluggish in their daily activities and made their thinking cloudy, or fuzzy

Molecule: chromium picolinate
- alcohol cravings (alcohol craving): significantly diminished alcohol cravings
- SCL-90 score (dysthymia; 200 μg chromium per day with sertraline 100 mg per day, second week): definite improvement
- response after resuming treatment (dysthymia; chromium picolinate 200 μg per day): Within two days they felt better and had no symptoms
- patient-reported symptoms during week (dysthymia; component taken along with sertraline 100 mg per day): their appetite was less
- Beck Scale estimated via telephone interview (dysthymia; resumed chromium picolinate 200 μg per day, sertraline continued): +2
- signs or symptoms of PMS ([2]; chromium 200 μg b.i.d. with paroxetine 20 mg t.i.d. and lithium 300 mg t.i.d.): completely without signs or symptoms of PMS, except for breast swelling
- pre-menstrual syndrome / menses symptoms [4]: their menses was less problematic
- overall response (severe dysthymia; chromium 200 μg twice daily, 400 μg per day): marked improvement
- potential adverse side effect ([3]; 200 μg chromium from chromium picolinate taken late in the day): their sleep was disturbed
- patient-reported symptoms during week [3]: dramatic, certain and immediate relief of symptoms
- total Beck score at the end of the week ([3]; one pill of component a day for five days along with sertraline 125 mg qd (chromium 200 μg per day)): 0
- plasma chromium level (Plasma chromium level; Patient No. 1, 400 μg chromium per day as chromium picolinate, sertraline discontinued): 0.9 µg/L
- plasma chromium (Plasma chromium level; Patient No. 2, four days after resuming chromium picolinate 200 μg per day): 0.8 µg/L
- patient-reported condition on chromium alone ([5]; 400 μg chromium per day (200 μg b.i.d.), sertraline discontinued): their sleep was much improved; also recorded: felt the best they had felt in a decade
- time to improvement after dose increase ([5]; crisis period at work, 200 μg chromium t.i.d.): Within an hour, they noticed immediate improvement
